According to patent US20260083704A1, “LXR MODULATORS WITH BICYCLIC CORE MOIETY FOR TREATING DYSLIPIDEMIAS” (OrsoBio, Inc., priority 2022, published 2026):

Experiments:
[1] = biological target: T1, GST-LXRβ ligand-binding domain (Homo sapiens, UniProt P55055); test: TR-FRETβ activity assay (NCoA3 coactivator peptide recruitment); format: biochemical; details: 1 μM 24(S)-25-epoxycholesterol prestimulation
T1 construct: amino acids 156-461; NP009052; made in house; host or cells: E. coli
T1 sequence (P55055 156-460 limits assumed): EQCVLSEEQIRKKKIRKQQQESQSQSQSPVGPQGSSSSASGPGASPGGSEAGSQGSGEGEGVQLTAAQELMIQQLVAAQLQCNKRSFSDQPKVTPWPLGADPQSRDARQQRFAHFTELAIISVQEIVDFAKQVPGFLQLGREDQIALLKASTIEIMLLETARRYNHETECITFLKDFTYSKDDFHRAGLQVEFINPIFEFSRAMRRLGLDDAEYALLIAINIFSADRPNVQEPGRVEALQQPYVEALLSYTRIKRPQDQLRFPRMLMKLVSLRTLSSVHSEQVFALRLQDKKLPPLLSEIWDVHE
Experimental: Recombinant GST-LXRβ ligand-binding domain (LBD; amino acids 156-461; NP009052; SEQ ID NO:4) was expressed in E. coli and purified via gluthatione-sepharose affinity chromatography. N-terminally biotinylated NCoA3 coactivator peptide (SEQ ID NO:7) was chemically synthesized (Eurogentec). Assays were done in 384 well format (final assay volume of 25 μL/well) in a Tris/HCl buffer (pH 6.8) containing KCl, bovine serum albumin, Triton-X-100 and 1 μM 24(S)-25-epoxycholesterol as LXR-prestimulating agonist. Assay buffer was provided and test articles (potential LXR inverse agonists) were titrated to yield final assay concentrations of 50 μM, 16.7 μM, 5.6 μM, 1.9 μM, 0.6 μM, 0.2 μM, 0.07 μM, 0.02 μM, 0.007 μM, 0.002 μM with one vehicle control. Finally, a detection mix was added containing anti GST-Tb cryptate (CisBio; 610SAXLB) and Streptavidin-XL665 (CisBio; 610SAXLB) as fluorescent donor and acceptor, respectively, as well as the coactivator peptide and LXRβ-LBD protein (SEQ ID NO:4). The reaction was mixed thoroughly, equilibrated for 1 h at 4° C. and vicinity of LXRβ and coactivator peptide was detected by measurement of fluorescence in a VictorX4 multiplate reader (PerkinElmer Life Science) using 340 nm as excitation and 615 and 665 nm as emission wavelengths. Assays were performed in triplicates.
240 mM KCl, 1 μg/μL BSA, 0.002% Triton-X-100, […] anti GST-Tb cryptate, 2.5 ng/μL Streptavidin-XL665, coactivator peptide (400 nM), LXRβ protein (530 μg/mL, i.e. 76 nM).

[2] = biological target: T2, LXRβ (Homo sapiens, UniProt P55055); test: LXR Gal4 reporter transient transfection assay (mammalian two-hybrid, HEK293), LXRβ; format: cell-based; set-up: LXRβ (amino acids 156-461); expressed in transfected cells; host or cells: HEK293; details: full length (FL) LXRβ, HEK293; read-out: FL-M2H Gal4β
T2 sequence (P55055 1-460): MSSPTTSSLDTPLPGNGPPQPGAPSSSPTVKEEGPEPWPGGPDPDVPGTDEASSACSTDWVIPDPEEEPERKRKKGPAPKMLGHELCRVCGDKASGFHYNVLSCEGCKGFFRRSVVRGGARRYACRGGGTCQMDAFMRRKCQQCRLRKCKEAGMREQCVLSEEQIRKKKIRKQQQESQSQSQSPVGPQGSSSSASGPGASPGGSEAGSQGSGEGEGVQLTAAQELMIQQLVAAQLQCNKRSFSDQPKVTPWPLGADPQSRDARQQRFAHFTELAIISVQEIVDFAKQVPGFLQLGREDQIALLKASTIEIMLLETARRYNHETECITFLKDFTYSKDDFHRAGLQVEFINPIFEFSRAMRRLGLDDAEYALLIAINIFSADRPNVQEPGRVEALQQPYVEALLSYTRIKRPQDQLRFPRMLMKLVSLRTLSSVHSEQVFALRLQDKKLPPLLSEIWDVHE
Experimental: LXRα and LXRβ activity status was determined via detection of interaction with coactivator and corepressor proteins in mammalian two-hybrid experiments (M2H). For this, via transient transfection the full length (FL) proteins of LXRα (amino acids 1-447; NP005684; SEQ ID NO:1) or LXRβ-(amino acids 1-461; NP009052; SEQ ID NO:2) or the ligand-binding domains (LBD) of LXRα (amino acids 155-447 SEQ ID NO:3) or LXRβ (amino acids 156-461; SEQ ID NO:4) were expressed from pCMV-AD (Stratagene) as fusions to the transcriptional activation domain of NFkB. As cofactors, domains of either the steroid receptor coactivator 1 (SRC1; amino acids 552-887; SEQ ID NO:5) or of the corepressor NCoR (amino acids 1906-2312; NP006302; SEQ ID NO:6) were expressed as fusions to the DNA binding domain of the yeast transcription factor GAL4 (from pCMV-BD; Stratagene). Interaction was monitored via activation of a coexpressed Firefly Luciferase Reporter gene under control of a promoter containing repetitive GAL4 response elements (vector pFRLuc; Stratagene). Transfection efficiency was controlled via cotransfection of constitutively active pRL-CMV Renilla reniformis luciferase reporter (Promega). HEK293 cells were grown in minimum essential medium (MEM) with 2 mM L-glutamine and Earle's balanced salt solution supplemented with 8.3% fetal bovine serum, 0.1 mM non-essential amino acids, 1 mM sodium pyruvate, at 37° C. in 5% CO2. 3.5×10^4 cells/well were plated in 96-well cell culture plates in growth medium supplemented with 8.3% fetal bovine serum for 16-20 h to ˜90% confluency. For transfection, medium was taken off and LXR and cofactor expressing plasmids as well as the reporter plasmids are added in 30 μL OPTIMEM/well including polyethylene-imine (PEI) as vehicle. Typical amounts of plasmids transfected/well: pCMV-AD-LXR (5 ng), pCMV-BD-cofactor (5 ng), pFR-Luc (100 ng), pRL-CMV (0.5 ng). Compound stocks were prepared in DMSO, prediluted in MEM to a total volume of 120 μL, and added 4 h after addition of the transfection mixture (final vehicle concentration not exceeding 0.2%). Cells were incubated for additional 16 h, lysed for 10 min in 1×Passive Lysis Buffer (Promega) and Firefly and Renilla luciferase activities were measured sequentially in the same cell extract using buffers containing D-luciferine and coelenterazine, respectively. Measurements of luminescence were done in a BMG-luminometer.
The potencies of Compound 21/3 and its analog, Compound pre-6/3, against LXRα and LXRβ were evaluated in biochemical binding assays, cellular mammalian two-hybrid (M2H) interaction assays evaluating nuclear receptor co-repressor (NCOR) recruitment, and cellular reporter assays evaluating transcriptional activity (Table 5).

SMILES	EC50 [1]	EC50 [2]
COc1cc(-c2c(-c3cccc(-c4ccc(C(=O)O)cc4Cl)c3)n(S(=O)(=O)c3ccc(C(F)F)cc3)c3ccc(F)cc23)c2c(C#N)cnn2c1 [11/46]	< 100 nM	< 100 nM
[2H]c1c([2H])c(S(=O)(=O)n2c(-c3cccc(-c4ccc(C(=O)O)cc4Cl)c3)c(-c3ccsc3C#N)c3cc(F)ccc32)c([2H])c([2H])c1C([2H])([2H])[2H] [3/22]	< 100 nM	< 100 nM
Cc1ccc(S(=O)(=O)n2c(-c3cccc(-c4ccc(C(=O)O)nc4C)c3)c(-c3ccsc3C#N)c3cc(F)ccc32)cc1 [36/1]	100 to 1000 nM	< 100 nM
O=C(O)c1ccc(-c2cccc(-c3c(-c4ccsc4C(F)F)c4cc(F)ccc4n3S(=O)(=O)c3ccc(Cl)cc3)c2)c(Cl)c1 [11/21]	< 100 nM	< 100 nM
Cc1ccc(S(=O)(=O)n2c(-c3cccc(-c4ccc(C(C)(O)C(=O)O)cc4)c3)c(-c3ccsc3C#N)c3cc(F)ccc32)cc1 (stereo not drawn) [3/55]	100 to 1000 nM	< 100 nM
Cc1ccc(S(=O)(=O)n2c(-c3cccc(-c4cccc(S(C)(=O)=Nc5nnn[nH]5)c4)c3)c(-c3ccsc3C#N)c3cc(F)ccc32)cc1 (stereo not drawn) [37/1]	100 to 1000 nM	100 to 1000 nM
N#Cc1cccc(C#N)c1-c1c(-c2cccc(-c3ccc(C(=O)O)cc3Cl)c2)n(S(=O)(=O)c2ccc(C(F)F)cc2)c2cnc(O)cc12 [3/70]	100 to 1000 nM	100 to 1000 nM
COc1ccc(S(=O)(=O)n2c(-c3cccc(N4CC(C(=O)O)C4)c3)c(-c3ccsc3C#N)c3cc(F)ccc32)cn1 [5/8]	100 to 1000 nM	100 to 1000 nM
N#Cc1sccc1-c1c(-c2cccc(C3CC3C(=O)NO)c2)n(S(=O)(=O)c2ccc(Cl)cc2)c2ccccc12 (stereo not drawn) [6/1]	100 to 1000 nM	< 100 nM
N#Cc1cccc(C#N)c1-c1c(-c2cccc(N3CC(C(=O)O)C3)c2)n(S(=O)(=O)c2ccc(C(F)F)cc2)c2ccc(F)cc12 [3/67]	100 to 1000 nM	100 to 1000 nM
Cc1ccc(S(=O)(=O)n2c(-c3cccc(-c4cc(F)c(CO)c(S(C)(=O)=O)c4)c3)c(-c3ccsc3C#N)c3cc(F)ccc32)cc1 [2/16]	< 100 nM	< 100 nM
Cc1ccc(S(=O)(=O)n2c(-c3cccc(N4CC(C(=O)O)C4)c3)c(-c3ccsc3C(F)(F)F)c3cc(F)ccc32)cc1 [3/30]	100 to 1000 nM	< 100 nM
Cc1ccc(S(=O)(=O)n2c(-c3cccc(N4CC(C(=O)O)C4)c3)c(-c3ccsc3C#N)c3cc(F)ccc32)c(F)c1 [3/14]	1000 to 10000 nM	100 to 1000 nM
O=C(O)c1ccc(-c2cccc(-c3c(-c4cccc5c4OCO5)c4cc(F)ccc4n3S(=O)(=O)c3ccc(C(F)F)cc3)c2)c(Cl)c1 [11/44]	< 100 nM	< 100 nM
O=C(O)c1ccc(-c2cccc(-c3c(-c4ccccc4C4(F)CNC4)c4cc(F)ccc4n3S(=O)(=O)c3ccc(C(F)F)cc3)c2)c(Cl)c1 [3/61]	100 to 1000 nM	100 to 1000 nM
Cc1ccc(S(=O)(=O)n2c(-c3cccc(-c4cc(F)c(C(=O)O)cc4Cl)c3)c(-c3ccsc3C#N)c3cc(F)ccc32)cc1 [12/2]	100 to 1000 nM	< 100 nM
O=C(O)c1ccc(-c2cccc(-c3c(-c4c(C(F)F)cccc4C(F)F)c4cc(F)ccc4n3S(=O)(=O)c3ccc(C(F)F)cc3)c2)c(Cl)c1 [11/15]	< 100 nM	< 100 nM
O=C(O)C1CC1c1cccc(-c2c(-c3c(Cl)cccc3Cl)c3cc(F)ccc3n2S(=O)(=O)c2ccc(C(F)F)cc2)c1 (stereo not drawn) [11/69]	< 100 nM	< 100 nM
Cc1ccc(S(=O)(=O)n2c(-c3cc(N4CC(C(=O)O)C4)ccc3Cl)c(-c3ccsc3C#N)c3cc(F)ccc32)cc1 [3/40]	1000 to 10000 nM	< 100 nM
CC(O)(C(=O)O)c1ccc(-c2cccc(-c3c(-c4c(C#N)cccc4C#N)c4cc(F)ccc4n3S(=O)(=O)c3ccc(C(F)F)cc3)c2)cc1 (stereo not drawn) [11/59]	< 100 nM	< 100 nM
Cc1ccc(S(=O)(=O)n2c(-c3cccc(N4[C@@H]5CC[C@H]4C[C@@H](C(=O)O)C5)c3)c(-c3ccsc3C#N)c3cc(F)ccc32)cc1 [3/58]	1000 to 10000 nM	< 100 nM
Cc1ccc(S(=O)(=O)n2c(-c3cccc(C4(C)CC4C(=O)O)c3)c(-c3ccsc3C#N)c3cc(F)ccc32)cc1 (stereo not drawn) [3/2]	1000 to 10000 nM	< 100 nM
N#Cc1cccc(C#N)c1-c1c(-c2cccc(-c3c(F)cc(OCC(=O)O)cc3F)c2)n(S(=O)(=O)c2ccc(C(F)F)cc2)c2ccc(F)cc12 [3/71]	< 100 nM	< 100 nM
Cc1ccc(S(=O)(=O)n2c(-c3cccc(N4CC(C(=O)O)C4)c3)c(-c3ccsc3C=O)c3cc(F)ccc32)cc1 [3/5]	100 to 1000 nM	100 to 1000 nM
Cc1ccc(S(=O)(=O)n2c(-c3cccc(-c4ccc(C(=O)O)cc4Cl)c3)c(-c3cc(C)ccc3C#N)c3cc(F)ccc32)cc1 [11/5]	< 100 nM	< 100 nM
N#Cc1cccc(C#N)c1-c1c(-c2cccc(Br)c2)n(S(=O)(=O)c2ccc(C(F)F)cc2)c2ccc(F)cc12 [1/139]	100 to 1000 nM	< 100 nM
Cc1ccc(S(=O)(=O)n2c(-c3cccc(-c4ccc(C(=O)O)c(Cl)c4)c3)c(-c3ccsc3C#N)c3cc(F)ccc32)cc1 [3/49]	100 to 1000 nM	< 100 nM
N#Cc1sccc1-c1c(-c2cccc(-c3cc(F)c(C(=O)O)cc3Cl)c2)n(S(=O)(=O)c2ccc(C(F)F)cc2)c2ccc(F)cc12 [11/8]	< 100 nM	< 100 nM
Cc1ccc(S(=O)(=O)n2c(-c3cccc(C4CC4C(=O)O)c3)c(-c3ccsc3C#N)c3ccncc32)cc1 (stereo not drawn) [4/1]	1000 to 10000 nM	< 100 nM
Cc1ccc(S(=O)(=O)n2c(-c3cccc(C4CC(C(=O)O)C4)c3)c(-c3ccsc3C#N)c3cc(F)ccc32)cc1 (stereo not drawn) [3/39]	100 to 1000 nM	< 100 nM
